From ChEMBL document CHEMBL1201862, “PubChem BioAssay data set” (2004)
Activity calls are given as the source filed them.

Key:
[1] = growth suppression of PTEN-null colon cells, dose response, cell-based, HCT116 PTEN knockout (AID 1047); type: functional;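 further: HCT116 colon tumor cells with PTEN knocked out; cells exposed to compound for 60 hours before readout; potency for loss of cell viability measured by luminescence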
[2] = growth suppression of beta-catenin-knockout colon cells, dose response, cell-based, HCT116, human colon tumor (AID 1045); type: functional;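 further: HCT116 colon tumor cells with beta catenin knocked out; cells exposed to compound for 60 hours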
Protein skinhead-1 = molecular target: T1, Protein skinhead-1 (Caenorhabditis elegans, UniProt P34707); type: functional
T1 sequence (P34707 whole entry): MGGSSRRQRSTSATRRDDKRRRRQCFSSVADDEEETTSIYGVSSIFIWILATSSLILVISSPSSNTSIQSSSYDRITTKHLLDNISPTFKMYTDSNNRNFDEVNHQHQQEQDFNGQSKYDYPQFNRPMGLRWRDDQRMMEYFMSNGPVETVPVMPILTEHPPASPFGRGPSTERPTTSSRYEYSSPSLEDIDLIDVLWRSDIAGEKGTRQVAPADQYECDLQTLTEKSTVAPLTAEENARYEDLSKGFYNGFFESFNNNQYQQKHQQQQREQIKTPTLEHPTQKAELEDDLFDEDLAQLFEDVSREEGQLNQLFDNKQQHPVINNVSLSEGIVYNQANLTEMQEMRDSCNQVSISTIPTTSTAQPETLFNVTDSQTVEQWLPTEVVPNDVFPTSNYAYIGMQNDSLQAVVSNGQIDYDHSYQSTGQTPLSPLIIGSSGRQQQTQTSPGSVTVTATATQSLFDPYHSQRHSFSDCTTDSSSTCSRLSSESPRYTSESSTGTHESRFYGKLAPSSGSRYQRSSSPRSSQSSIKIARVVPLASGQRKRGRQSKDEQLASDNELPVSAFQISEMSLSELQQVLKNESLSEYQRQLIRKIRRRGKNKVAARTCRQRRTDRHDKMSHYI

Fatty acid synthase [3] = molecular target: T2, Fatty acid synthase (Homo sapiens, UniProt P49327); test: FAS thioesterase domain inhibitors, dose response, biochemical, kinetic fluorescence intensity (AID 624326); type: functional;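 further: rate of fluorescence rise from hydrolysis of a fluorogenic O-methyl fluorescein ester substrate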
Fatty acid synthase [4] = molecular target: T2, Fatty acid synthase; test: FAS thioesterase domain inhibitors, dose response, biochemical, endpoint fluorescence intensity, uHTS hits (AID 624327); type: functional;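 further: fluorescence from hydrolysis of an O-methyl fluorescein acyl ester substrate by the enzyme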
H9c2 = test: cells; type: functional, cell-based; settings: Rattus norvegicus, H9c2, Myocardium;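 further: confirmatory concentration-response retest of ultra-high-throughput screening hits for modulation of myocardial damage; cell death induced by hydrogen peroxide oxidative stress; compound pretreatment for 60 min then peroxide exposure for 2 h; potency is for protecting the cells against peroxide damage rather than for killing them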
[5] = inhibitors of clade B AD8 Env fusion, dose response, cell-based, cherry-pick (AID 652062); type: functional;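 further: luciferase signal from cell-cell fusion driven by HIV-1 clade B AD8 Env; potency is for inhibitors of fusion seen as a drop in luminescence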
[6] = inhibitors of HIV Env-driven cell fusion, dose response, cherry-pick (AID 652057); type: functional, cell-based
Cytochrome P450 3A4 = Cytochrome P450 3A4 (Homo sapiens, UniProt P08684);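 further: CYP3A4 tested as one member of a cytochrome P450 panel screen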
Cytochrome P450 1A2 = molecular target: T3, Cytochrome P450 1A2 (Homo sapiens, UniProt P05177);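 further: PubChem cytochrome P450 panel assay, CYP1A2 panel member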
T3 sequence (P05177 whole entry): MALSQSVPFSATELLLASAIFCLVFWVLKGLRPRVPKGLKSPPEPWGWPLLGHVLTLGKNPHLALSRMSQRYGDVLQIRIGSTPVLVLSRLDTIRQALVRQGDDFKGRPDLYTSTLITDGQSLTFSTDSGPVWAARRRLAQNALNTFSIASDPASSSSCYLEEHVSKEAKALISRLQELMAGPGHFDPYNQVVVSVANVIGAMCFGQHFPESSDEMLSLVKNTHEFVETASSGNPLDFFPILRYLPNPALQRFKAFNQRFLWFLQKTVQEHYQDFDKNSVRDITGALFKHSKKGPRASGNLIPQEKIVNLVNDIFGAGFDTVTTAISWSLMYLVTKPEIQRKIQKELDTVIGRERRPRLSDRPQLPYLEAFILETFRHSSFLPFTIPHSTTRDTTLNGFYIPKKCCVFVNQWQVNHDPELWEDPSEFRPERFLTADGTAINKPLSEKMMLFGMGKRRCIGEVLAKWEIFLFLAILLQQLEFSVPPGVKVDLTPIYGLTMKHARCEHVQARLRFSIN

T2 sequence (P49327 whole entry, the tested form may be a part): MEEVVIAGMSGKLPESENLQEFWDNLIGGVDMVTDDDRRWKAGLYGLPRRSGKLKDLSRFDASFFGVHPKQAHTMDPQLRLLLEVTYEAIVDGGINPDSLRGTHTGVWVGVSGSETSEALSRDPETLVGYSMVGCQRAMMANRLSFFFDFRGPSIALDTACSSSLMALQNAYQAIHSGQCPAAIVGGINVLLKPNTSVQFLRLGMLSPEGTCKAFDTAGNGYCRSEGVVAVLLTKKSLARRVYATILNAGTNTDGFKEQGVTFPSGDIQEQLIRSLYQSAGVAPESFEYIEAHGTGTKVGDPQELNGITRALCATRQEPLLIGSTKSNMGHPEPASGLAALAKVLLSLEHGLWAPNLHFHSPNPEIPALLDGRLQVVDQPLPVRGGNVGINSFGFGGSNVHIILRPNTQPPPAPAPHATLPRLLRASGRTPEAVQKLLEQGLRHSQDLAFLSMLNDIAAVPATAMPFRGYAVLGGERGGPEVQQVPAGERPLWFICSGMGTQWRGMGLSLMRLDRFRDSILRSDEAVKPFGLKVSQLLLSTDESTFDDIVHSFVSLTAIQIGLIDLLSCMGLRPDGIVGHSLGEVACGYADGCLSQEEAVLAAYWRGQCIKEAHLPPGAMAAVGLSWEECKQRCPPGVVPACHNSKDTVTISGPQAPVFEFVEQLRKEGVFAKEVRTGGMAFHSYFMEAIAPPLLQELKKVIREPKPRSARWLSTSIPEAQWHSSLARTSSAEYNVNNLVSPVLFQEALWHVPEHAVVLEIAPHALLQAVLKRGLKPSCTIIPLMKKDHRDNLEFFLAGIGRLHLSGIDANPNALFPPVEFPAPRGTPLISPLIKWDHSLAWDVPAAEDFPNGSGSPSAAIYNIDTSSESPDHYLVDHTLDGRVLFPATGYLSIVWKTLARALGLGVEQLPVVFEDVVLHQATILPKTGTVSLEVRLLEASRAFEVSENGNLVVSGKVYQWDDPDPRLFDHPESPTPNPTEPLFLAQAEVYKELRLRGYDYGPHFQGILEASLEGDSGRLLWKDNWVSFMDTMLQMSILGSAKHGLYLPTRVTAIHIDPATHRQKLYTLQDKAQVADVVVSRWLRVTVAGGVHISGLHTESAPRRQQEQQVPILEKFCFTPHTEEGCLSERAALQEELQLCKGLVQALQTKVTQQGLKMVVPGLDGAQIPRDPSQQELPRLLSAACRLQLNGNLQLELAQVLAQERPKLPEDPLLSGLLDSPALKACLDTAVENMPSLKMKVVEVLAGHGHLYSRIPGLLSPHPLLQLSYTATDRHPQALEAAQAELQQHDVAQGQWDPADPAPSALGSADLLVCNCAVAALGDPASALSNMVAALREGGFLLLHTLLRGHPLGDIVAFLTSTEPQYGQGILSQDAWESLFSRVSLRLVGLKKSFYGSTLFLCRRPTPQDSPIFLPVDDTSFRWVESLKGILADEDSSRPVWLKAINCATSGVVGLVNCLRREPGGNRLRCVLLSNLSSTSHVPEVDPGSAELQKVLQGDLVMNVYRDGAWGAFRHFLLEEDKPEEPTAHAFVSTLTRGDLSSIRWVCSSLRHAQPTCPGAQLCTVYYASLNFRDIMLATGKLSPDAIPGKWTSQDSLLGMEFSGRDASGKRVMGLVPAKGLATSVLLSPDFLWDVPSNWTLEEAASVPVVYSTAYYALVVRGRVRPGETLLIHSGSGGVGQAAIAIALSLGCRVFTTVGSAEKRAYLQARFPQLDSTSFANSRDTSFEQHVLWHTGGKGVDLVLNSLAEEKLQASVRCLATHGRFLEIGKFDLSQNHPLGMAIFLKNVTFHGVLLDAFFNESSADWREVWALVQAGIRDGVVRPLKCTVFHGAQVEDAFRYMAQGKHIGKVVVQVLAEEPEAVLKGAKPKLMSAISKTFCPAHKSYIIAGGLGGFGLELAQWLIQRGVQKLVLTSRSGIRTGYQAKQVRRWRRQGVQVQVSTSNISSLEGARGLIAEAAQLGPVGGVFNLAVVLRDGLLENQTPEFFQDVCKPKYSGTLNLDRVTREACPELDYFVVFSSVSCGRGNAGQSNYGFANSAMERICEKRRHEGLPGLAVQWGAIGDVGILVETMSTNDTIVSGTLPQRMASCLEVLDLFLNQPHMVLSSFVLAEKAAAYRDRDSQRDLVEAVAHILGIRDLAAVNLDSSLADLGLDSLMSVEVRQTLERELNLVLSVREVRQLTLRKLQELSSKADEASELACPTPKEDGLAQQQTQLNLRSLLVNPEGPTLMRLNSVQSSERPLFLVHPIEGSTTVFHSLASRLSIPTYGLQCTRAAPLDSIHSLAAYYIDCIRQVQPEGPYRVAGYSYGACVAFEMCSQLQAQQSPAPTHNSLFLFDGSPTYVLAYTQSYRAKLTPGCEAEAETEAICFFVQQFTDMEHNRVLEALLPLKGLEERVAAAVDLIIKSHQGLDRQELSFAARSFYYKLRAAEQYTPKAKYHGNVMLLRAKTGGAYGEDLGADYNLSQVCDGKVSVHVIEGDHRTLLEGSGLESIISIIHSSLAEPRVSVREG
Chain of Cytochrome P450 3A4 (P08684 whole entry): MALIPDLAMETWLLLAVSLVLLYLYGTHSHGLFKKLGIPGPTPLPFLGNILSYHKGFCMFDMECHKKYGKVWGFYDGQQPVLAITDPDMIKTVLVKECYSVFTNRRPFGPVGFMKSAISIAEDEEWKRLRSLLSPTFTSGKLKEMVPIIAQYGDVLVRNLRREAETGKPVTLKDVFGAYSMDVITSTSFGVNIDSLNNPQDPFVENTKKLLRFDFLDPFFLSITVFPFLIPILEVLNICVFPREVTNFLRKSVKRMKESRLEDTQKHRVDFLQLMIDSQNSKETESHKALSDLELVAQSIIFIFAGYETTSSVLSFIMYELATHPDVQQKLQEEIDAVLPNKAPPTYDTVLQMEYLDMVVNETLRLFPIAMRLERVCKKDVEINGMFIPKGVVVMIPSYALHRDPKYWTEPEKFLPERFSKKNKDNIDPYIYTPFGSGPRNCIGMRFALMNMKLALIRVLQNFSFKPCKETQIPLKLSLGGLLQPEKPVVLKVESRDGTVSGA

SMILES | IC50 (Fatty acid synthase [3]) | IC50 (Fatty acid synthase [4]) | IC50 (H9c2) | other results
CCN1CCN(c2cc(N3CCc4ccccc4C3)c(F)cc2[N+](=O)[O-])CC1 | – | – | – | EC50 [1]: 12.8 µM (active); EC50 [2]: 12 µM (active)
Cc1c(C(=O)NCCC2=CCCCC2)oc2ccc(S(=O)(=O)N3CCOCC3)cc12 | – | – | – | EC50 [1]: 19.2 µM (active); IC50 (Protein skinhead-1): > 100 µM (inactive); EC50 [2]: 31.7 µM (active)
Cc1c(Cl)c([N+](=O)[O-])nn1CCCC(=O)Nc1cccc(Cl)c1 | 16.2 µM (active) | 17.6 µM (active) | – | –
O=C(CCc1nc(O)c2ccccc2n1)N1CCCc2ccccc21 | – | – | > 79 µM (inactive) | –
O=[N+]([O-])c1ccc(S(=O)(=O)NN=Cc2ccc(Cl)c(Cl)c2)cc1 | 2.68 µM (active) | 1.52 µM (active) | – | –
CC(C)NC(=O)N(C)C[C@H]1Oc2c(NC(=O)Nc3ccc(C(F)(F)F)cc3)cccc2C(=O)N([C@H](C)CO)C[C@@H]1C | 1.08 µM (active) | 0.842 µM (active) | – | –
COc1ccc(N2CC(C(=O)NCc3nnc(O)c4ccccc34)CC2=O)cc1 (configuration not stated) | – | – | 12.9 µM (active) | –
O=C(c1cc(O)nc2ccccc12)N1CCN(S(=O)(=O)c2ccc(Cl)cc2)CC1 | – | – | 14.4 µM (active) | –
O=C(Cn1[nH]c(=O)c2ccccc2c1=O)NNC(=O)c1ccccc1 | – | – | 18.6 µM (active) | –
Cc1cc(C)c2c(N)c(C(=O)N/N=C/c3cccnc3)sc2n1 | – | – | > 79 µM (inactive) | –
C[C@H](CO)N1C[C@H](C)[C@H](CN(C)S(=O)(=O)c2ccccc2)Oc2cc(-c3cccc(F)c3)ccc2S1(=O)=O | – | – | – | AC50 [5]: 10.7 µM (active); AC50 [6]: 11 µM (active)
O=c1[nH]c2cc([N+](=O)[O-])c([N+](=O)[O-])cc2[nH]c1=O [DNQX] | 6.88 µM (active) | 8.63 µM (active) | – | AC50 (Cytochrome P450 3A4): 25.1 µM (inconclusive); AC50 (Cytochrome P450 1A2): 31.6 µM (inconclusive)
